Holding throughout (assay): NCI-60 cell line screen, 48 h
Assay [1] deals with T47D.
The subject of assay [2] is HOP-62.
Assay [3] concerns NCI-H23.
Assay [4] deals with OVCAR-5.
Assay [5] relates to EKVX.
Assay [6] has as its system BT-549.
For assay [7], the system named is SK-MEL-2.
Assay [8] relates to U-251.
Assay [9] has as its system HCC 2998.
The subject of assay [10] is NCI-H226.
Assay [11] has as its system UACC-62.
In assay [12] the test system is CCRF-CEM.
Assay [13] concerns MDA-N.
Assay [14] concerns LOX IMVI.
For assay [15], the system named is COLO 205.
Assay [16] relates to MOLT-4.
Assay [17] deals with K562.
Assay [18] deals with RPMI-8226.
Assay [19] relates to SR.
The subject of assay [20] is DMS-273.

The source of these data is ChEMBL document CHEMBL1201862, “PubChem BioAssay data set” (2004).

SMILES strings stand for the structures.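 Each compound was tested at five concentrations against cells in 96-well plates for 48 hours. GI50: concentration for 50% inhibition of growth.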 Active and inactive are the calls of the source. No stated cut-off is given here; in the data, active = GI50 up to about 1.1 µM and inactive = higher.

On to `Nc1nc2c(c(=O)[nH]1)N=C(COP(=O)(O)OP(=O)(O)O)CN2`, for which the GI50 in assay [1], in assay [2], in [3], in assay [4], in assay [5] and in [6] was > 100 µM (inactive) each time. Also, the GI50 in assay [7], in assay [8], in assay [9], in [10], in [11] and in assay [12] was > 100 µM (inactive) throughout. For the same molecule, the GI50 in [13], in assay [14], in assay [15], in assay [16], in [17] and in [18] was > 100 µM (inactive) throughout. For the same molecule, the GI50 in assay [19] is > 100 µM (inactive).
Consider `CN1CN(c2ccccc2)C2(CCN(CCCSc3ccccc3NC(=O)/C=C/c3ccccc3)CC2)C1=O`, for which the GI50 in assay [1] was 4.01 µM (inactive); in assay [2], 2.83 µM (inactive); in [3] it was 4.61 µM (inactive); in assay [4], 22.6 µM (inactive); in assay [5], 4.98 µM (inactive); in assay [6], 2.54 µM (inactive). Moreover, the GI50 in [7] is 2.58 µM (inactive); in assay [8], 7.5 µM (inactive); in [9], 4.84 µM (inactive); in assay [10], 2.24 µM (inactive); in [11], 2.71 µM (inactive); in assay [12], 2.93 µM (inactive). Besides, the GI50 in assay [13] was 2.57 µM (inactive); in [14], 2.25 µM (inactive); in assay [15], 2.01 µM (inactive); in assay [16], 2 µM (inactive); in assay [17] it was 3.85 µM (inactive); in [18], 1.89 µM (inactive). In addition, the GI50 in assay [19] is 2.1 µM (inactive).
On to `CCn1c(C)nn2c(=O)c3ccccc3nc2c1=O`, for which the GI50 in assay [2], in [3], in assay [4], in assay [5], in assay [7] and in assay [8] was > 100 µM (inactive) each time. The GI50 in [9], in [11], in assay [12], in assay [14], in [15] and in assay [16] was > 100 µM (inactive) each time. Further, the GI50 in assay [17], in assay [18] and in assay [20] was > 100 µM (inactive) in each case.
On to `COc1ccc(SCc2cc(OC)c(OC)c(OC)c2)cc1OC`, for which the GI50 was 13.4 µM (inactive) in [1]; > 100 µM (inactive) in assay [2]; 27.5 µM (inactive) in assay [3]; > 94.6 µM (inactive) in assay [4]; 43.4 µM (inactive) in assay [5]; 30 µM (inactive) in [6]. The GI50 in assay [7] was 23 µM (inactive); in assay [8], 53.8 µM (inactive); in [9], 50.9 µM (inactive); in [10] it was 51.6 µM (inactive); in assay [11], 38 µM (inactive); in assay [12], 64.9 µM (inactive). Also, the GI50 is 24.5 µM (inactive) in assay [13]; 51.4 µM (inactive) in assay [14]; 50.4 µM (inactive) in [15]; 46.2 µM (inactive) in assay [16]; 42.9 µM (inactive) in assay [17]; 33.3 µM (inactive) in [18]. Moreover, the GI50 in assay [19] is 53.8 µM (inactive).
In the case of `C=CC[C@@]1(OC(C)=O)C(=O)C(=O)OC1C1COC(C)(C)O1` (stereo partly specified), the GI50 in assay [1] is 16 µM (inactive); in assay [2] it was 49.4 µM (inactive); in assay [3] it was 20.3 µM (inactive); in assay [4] it was 19.8 µM (inactive); in [5], 16.4 µM (inactive); in [6], 21.1 µM (inactive). Also, the GI50 was 21.6 µM (inactive) in assay [7]; 16.9 µM (inactive) in [8]; 20.7 µM (inactive) in [9]; 35.3 µM (inactive) in assay [10]; 16.5 µM (inactive) in assay [11]; 6.04 µM (inactive) in assay [12]. Besides, the GI50 in assay [13] was 16.5 µM (inactive); in assay [14] it was 6.17 µM (inactive); in assay [15] it was 12.9 µM (inactive); in assay [16] it was 14.3 µM (inactive); in assay [17], 15.3 µM (inactive); in assay [18] it was 12.4 µM (inactive). Also, the GI50 in assay [19] is 15.2 µM (inactive).
With `Cc1ccc(S(=O)(=O)N/N=C2\CCCCCCCCCCC2CN(C)C)cc1` (stereo unspecified), the GI50 in assay [1] is 13.4 µM (inactive); in [2] it was 17.6 µM (inactive); in [3], 23 µM (inactive); in assay [4], 16.3 µM (inactive); in assay [5], 22.9 µM (inactive); in assay [6], 17.7 µM (inactive). Also, the GI50 in assay [7] was 10.6 µM (inactive); in assay [8], 15.9 µM (inactive); in assay [9] it was 8.43 µM (inactive); in [10], 15.7 µM (inactive); in assay [11], 18.2 µM (inactive); in [12], 15.7 µM (inactive). Besides, the GI50 in assay [13] was 18.5 µM (inactive); in assay [14] it was 17.1 µM (inactive); in assay [15] it was 17.4 µM (inactive); in [16], 26.7 µM (inactive); in [17] it was 13.2 µM (inactive); in [18], 38.7 µM (inactive). In assay [19], the GI50 is 16.9 µM (inactive).
For the molecule `CC1=NN(c2ccccc2)C(=O)C1/N=N/c1ccc(Br)cc1C` (stereo unspecified), the GI50 is 27.9 µM (inactive) in assay [2]; 38 µM (inactive) in [3]; > 100 µM (inactive) in [4]; > 100 µM (inactive) in assay [5]; 56.6 µM (inactive) in assay [7]; 38.3 µM (inactive) in assay [8]. Moreover, the GI50 in assay [9] was > 100 µM (inactive); in assay [10], 35.9 µM (inactive); in assay [11], > 100 µM (inactive); in [12], > 100 µM (inactive); in [15], > 100 µM (inactive); in assay [16] it was > 100 µM (inactive). Further, the GI50 in assay [17], in assay [18] and in [20] was > 100 µM (inactive) in each case.
Consider `Cc1[nH]c2ncn(Nc3ccccc3)c(=N)c2c1Cc1ccccc1`, for which the GI50 in [1] was 1.07 µM (active); in assay [2], 32.4 µM (inactive); in assay [3] it was 31.8 µM (inactive); in assay [4] it was 11.2 µM (inactive); in [5], 5.89 µM (inactive); in assay [6], 3.34 µM (inactive). The GI50 in assay [7] was 0.142 µM (active); in [8], 19.7 µM (inactive); in assay [9] it was > 100 µM (inactive); in assay [10], > 55 µM (inactive); in assay [11] it was 0.0254 µM (active); in [12] it was 37.3 µM (inactive). Further, the GI50 was 0.191 µM (active) in assay [13]; 10.7 µM (inactive) in [14]; 0.0998 µM (active) in assay [15]; 35.6 µM (inactive) in assay [16]; 0.0578 µM (active) in assay [17]; > 60.7 µM (inactive) in assay [18]. Further, the GI50 in assay [19] was 21.2 µM (inactive).
As for `Cn1cnc([N+](=O)[O-])c1[Se]c1nc(N)nc2c1ncn2C1OC(CO)C(O)C1O` (stereo unspecified), the GI50 in assay [1], in assay [2], in assay [3], in assay [4], in assay [5] and in assay [6] was > 100 µM (inactive) throughout. Moreover, the GI50 in assay [7], in [8], in assay [9], in assay [10], in assay [11] and in [12] was > 100 µM (inactive) each time. The GI50 in assay [13], in assay [14], in assay [15], in assay [16], in [17] and in assay [18] was > 100 µM (inactive) throughout. The GI50 in assay [19] is > 100 µM (inactive).
As to `C=CCN1C(=O)CNC1=S`, the GI50 in assay [1], in [2], in assay [3], in assay [4], in assay [5] and in assay [6] was > 100 µM (inactive) throughout. Moreover, the GI50 in assay [7] was > 100 µM (inactive); in [8], > 100 µM (inactive); in assay [9], > 100 µM (inactive); in assay [10], > 100 µM (inactive); in assay [11] it was > 100 µM (inactive); in [12], 5.35 µM (inactive). In addition, the GI50 in [13] was > 100 µM (inactive); in assay [14] it was > 100 µM (inactive); in [15], > 100 µM (inactive); in assay [16], > 100 µM (inactive); in assay [17], 40.6 µM (inactive); in assay [18], > 100 µM (inactive). Further, the GI50 in [19] was > 100 µM (inactive).
As to `O=C1CCc2c(sc3ncnc(Nc4cccc(Br)c4)c23)C1`, the GI50 is 2.4 µM (inactive) in assay [1]; 5.53 µM (inactive) in assay [2]; 3.01 µM (inactive) in [3]; 6.98 µM (inactive) in [4]; 2.19 µM (inactive) in assay [5]; 3.77 µM (inactive) in assay [6]. In addition, the GI50 in [7] was 6.89 µM (inactive); in assay [8] it was 2.81 µM (inactive); in assay [9], 4.26 µM (inactive); in assay [10] it was 4.06 µM (inactive); in assay [11], 3.72 µM (inactive); in assay [12], 2.08 µM (inactive). The GI50 in assay [13] is 2.65 µM (inactive); in [14], 3.49 µM (inactive); in assay [15], 7.36 µM (inactive); in assay [16], 3.2 µM (inactive); in [17], 2.75 µM (inactive); in [18] it was 2.58 µM (inactive). For the same molecule, the GI50 in [19] is 2.33 µM (inactive).
